# Test results published in patent publication US9833497B2, “Human originated EGF domain proteins and use of the same” (CHENGDU SOURCEBIO LIMITED-LIABILITY COMPANY, priority 2013, dated 2017).
# Assays:
# Type in all cases: cell-based
# Serratia marcescens = experiment: MIC against Gram-negative bacteria: Serratia marcescens; conditions: for MIC against S. marcescens: 96-well plate, 37° C., 10 h; for MIC: S. marcescens
# In short: (§1)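 First, colonies from LB agar were grown in LB at 37° C, 185 rpm, to McFarland turbidity 0.5, then centrifuged and resuspended in fresh LB. Next, wells received 5×10^5 CFU/mL bacteria plus two-fold serially diluted EGF domain protein (triplicate). Finally, plates were shaken at 37° C and the no-growth concentration taken as MIC.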
# Citrobacter diversus = experiment: MIC against Gram-negative bacteria: Citrobacter diversus; conditions: for MIC against C. diversus: 96-well plate, 37° C., 10 h; for MIC: C. diversus
# In short: as §1
# Proteus vulgaris = experiment: MIC against Gram-negative bacteria: Proteus vulgaris; conditions: for MIC against P. vulgaris: 96-well plate, 37° C., 10 h; for MIC: P. vulgaris
# In short: as §1
# Proteus mirabilis = experiment: MIC against Gram-negative bacteria: Proteus mirabilis; conditions: for MIC against P. mirabilis: 96-well plate, 37° C., 10 h; for MIC: P. mirabilis
# In short: as §1
# Moraxella catarrhalis = experiment: MIC against Gram-negative bacteria: Moraxella catarrhalis; conditions: for MIC against M. catarrhalis: 96-well plate, 37° C., 10 h; for MIC: M. catarrhalis
# In short: as §1
# Aeromonas hydrophila = experiment: MIC against Gram-negative bacteria: Aeromonas hydrophila; conditions: for MIC against A. hydrophila: 96-well plate, 37° C., 10 h; for MIC: A. hydrophila
# In short: as §1
# E. coli BL21 = experiment: MIC against Gram-negative bacteria: E. coli BL21; conditions: for MIC against E. coli BL21: 96-well plate, 37° C., 10 h; for MIC: E. coli BL21
# In short: as §1
# Klebsiella pneumonia = experiment: MIC against Gram-negative bacteria: Klebsiella pneumonia; conditions: for MIC against K. pneumonia: 96-well plate, 37° C., 10 h; for MIC: K. pneumonia
# In short: as §1
# Pseudomonas aeruginosa = experiment: MIC against Gram-negative bacteria: Pseudomonas aeruginosa; conditions: for MIC against P. aeruginosa: 96-well plate, 37° C., 10 h; for MIC: P. aeruginosa
# In short: as §1
# Enterobacter cloacae = experiment: MIC against Gram-negative bacteria: Enterobacter cloacae; conditions: for MIC against E. cloacae: 96-well plate, 37° C., 10 h; for MIC: E. cloacae
# In short: as §1
# E. coli DH5α = experiment: Antibacterial activity: MIC and growth curve against E. coli DH5α in 96-well plate; conditions: minimal inhibitory concentration against E. coli DH5α; 96-well plate, 5×10^5 CFU/mL, 37° C., judged after 8 h
# In short: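 Log-phase DH5α (OD600 about 0.5, 37° C, 185 rpm in LB) was pelleted, resuspended in fresh LB and seeded at 5×10^5 CFU/mL with recombinant protein at 50, 25 and 12.5 μg/mL (two-fold series), in triplicate. Plates were shaken at 175 rpm, 37° C, and OD600 was read every 30 min. MIC was the lowest concentration with no growth.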
# [1] = 10 h cultivation at 37° C., 5×10^5 CFU/mL
# [2] = 10 h cultivation at 37° C., 5×10^5 CFU/mL, two-fold serial dilution
Substance,MIC against S. marcescens (Serratia marcescens; 5×10^5 CFU/mL) [µg/mL],MIC against C. diversus (Citrobacter diversus; 5×10^5 CFU/mL) [µg/mL],MIC against P. vulgaris (Proteus vulgaris; 5×10^5 CFU/mL) [µg/mL],MIC against P. mirabilis (Proteus mirabilis; 5×10^5 CFU/mL) [µg/mL],MIC against M. catarrhalis (Moraxella catarrhalis; 5×10^5 CFU/mL) [µg/mL],MIC against A. hydrophila (Aeromonas hydrophila; 5×10^5 CFU/mL) [µg/mL],MIC against E. coli BL21 (E. coli BL21; 5×10^5 CFU/mL) [µg/mL],MIC against K. pneumonia (Klebsiella pneumonia; 5×10^5 CFU/mL) [µg/mL],MIC against P. aeruginosa (Pseudomonas aeruginosa; 5×10^5 CFU/mL) [µg/mL],MIC against E. cloacae (Enterobacter cloacae; 5×10^5 CFU/mL) [µg/mL],MIC (E. coli DH5α) [µg/mL],further results
PRT450 (KCLCPLGFLLANDSKTCEDIDE; listed as Homo sapiens),12.5,12.5,50,12.5,50,50,12.5,50,12.5,12.5,12.5,
PRT468 (LCTPRCMNGGLCVTPGFCICPPGFYGVNCD; listed as Homo sapiens),50,50,12.5,50,12.5,12.5,12.5,50,25,25,25,
PRT317 (VTDYCQLVRYLCQNGRCIPTPGSCRCECNKGFQLDLRGECI; listed as Homo sapiens),,,,,,,,,,,12.5,MIC (Serratia marcescens; [1]): 12.5 µg/mL; MIC (Citrobacter diversus; [1]): 12.5 µg/mL; MIC (Proteus vulgaris; [1]): 12.5 µg/mL; MIC (Proteus mirabilis; [1]): 12.5 µg/mL; MIC (Moraxella catarrhalis; [1]): 25 µg/mL; MIC (Aeromonas hydrophila; [1]): 25 µg/mL; MIC (E. coli BL21; [1]): 50 µg/mL; MIC (Klebsiella pneumonia; [1]): 50 µg/mL; MIC (Pseudomonas aeruginosa; [1]): 12.5 µg/mL; MIC (Enterobacter cloacae; [1]): 12.5 µg/mL
PRT1119 (EVLECASAPCEHNASCLEGLGSFRCLCWPGYSGELCE; listed as Homo sapiens),,,,,,,,,,,100,MIC S. marcescens (Serratia marcescens; [2]): 50 µg/mL; MIC C. diversus (Citrobacter diversus; [2]): 50 µg/mL; MIC P. vulgaris (Proteus vulgaris; [2]): 25 µg/mL; MIC P. mirabilis (Proteus mirabilis; [2]): 12.5 µg/mL; MIC M. catarrhalis (Moraxella catarrhalis; [2]): 25 µg/mL; MIC A. hydrophila (Aeromonas hydrophila; [2]): 25 µg/mL; MIC E. coli BL21 (E. coli BL21; [2]): 25 µg/mL; MIC K. pneumonia (Klebsiella pneumonia; [2]): 25 µg/mL; MIC P. aeruginosa (Pseudomonas aeruginosa; [2]): 50 µg/mL; MIC E. cloacae (Enterobacter cloacae; [2]): 12.5 µg/mL
PRT523 (CSCGRRLCEEMTGQCRCPPRTVRPQCEVCETHSFSFHPMAGCEG; listed as Homo sapiens),12.5,50,12.5,50,12.5,25,25,25,50,12.5,12.5,
PRT990 (LDDACVSNPCHEDAICDTNPVNGRAICTCPPGFTGGACD; listed as Homo sapiens),,,,,,,,,,,12.5,MIC (Serratia marcescens; 10 h cultivation at 37° C.): 25 µg/mL; MIC (Citrobacter diversus; 10 h cultivation at 37° C.): 25 µg/mL; MIC (Proteus vulgaris; 10 h cultivation at 37° C.): 12.5 µg/mL; MIC (Proteus mirabilis; 10 h cultivation at 37° C.): 25 µg/mL; MIC (Moraxella catarrhalis; 10 h cultivation at 37° C.): 50 µg/mL; MIC (Aeromonas hydrophila; 10 h cultivation at 37° C.): 12.5 µg/mL; MIC (E. coli BL21; 10 h cultivation at 37° C.): 25 µg/mL; MIC (Klebsiella pneumonia; 10 h cultivation at 37° C.): 12.5 µg/mL; MIC (Pseudomonas aeruginosa; 10 h cultivation at 37° C.): 12.5 µg/mL; MIC (Enterobacter cloacae; 10 h cultivation at 37° C.): 50 µg/mL
